From ChEMBL document CHEMBL2074125 (Drug Metabol Pharmacokin, 2002)

Experiments:
[1] = biological target: T1, Solute carrier family 22 member 6 (Rattus norvegicus, UniProt O35956); test: TP_TRANSPORTER: uptake in Xenopus laevis oocytes; type: functional, cell-based; settings: oocyte
T1 sequence (O35956 whole entry): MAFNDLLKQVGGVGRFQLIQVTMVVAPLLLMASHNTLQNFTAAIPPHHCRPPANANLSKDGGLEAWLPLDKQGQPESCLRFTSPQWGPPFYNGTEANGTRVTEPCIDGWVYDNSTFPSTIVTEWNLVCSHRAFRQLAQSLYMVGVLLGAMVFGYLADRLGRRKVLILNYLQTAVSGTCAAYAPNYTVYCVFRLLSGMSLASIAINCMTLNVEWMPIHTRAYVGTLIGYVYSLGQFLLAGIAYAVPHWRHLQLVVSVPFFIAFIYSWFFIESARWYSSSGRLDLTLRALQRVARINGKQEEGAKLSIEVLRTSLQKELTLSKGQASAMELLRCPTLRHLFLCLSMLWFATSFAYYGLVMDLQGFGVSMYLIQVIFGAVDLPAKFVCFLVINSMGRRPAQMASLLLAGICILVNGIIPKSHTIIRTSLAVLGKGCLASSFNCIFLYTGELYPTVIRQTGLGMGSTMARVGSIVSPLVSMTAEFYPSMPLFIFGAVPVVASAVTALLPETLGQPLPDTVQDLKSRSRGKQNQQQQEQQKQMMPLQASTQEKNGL

[2] = biological target: T1, Solute carrier family 22 member 6; test: TP_TRANSPORTER: inhibition of PAH uptake in Xenopus laevis oocytes; type: functional, cell-based, Oocyte

SMILES | Activity [1] | IC50 [2]
CN(C)CCn1nnnc1SCC1=C(C(=O)O)N2C(=O)[C@@H](NC(=O)Cc3csc(N)n3)[C@H]2SC1 [CEFOTIAM] | substrate [+] | 718 µM
CC1=C(C(=O)O)N2C(=O)[C@@H](NC(=O)[C@H](N)c3ccccc3)[C@H]2SC1 [CEPHALEXIN ANHYDROUS] | substrate [+] | 
